# Source: ChEMBL document CHEMBL6103645, “Modular Synthesis of Bioactive Selenoheterocycles for Efficient Cancer Therapy via Electrochemical Selenylation/Cyclization” (J Med Chem, 2025)
# Active and inactive are the calls of the source. The rule behind the calls is not given here.
# Tests used:
# [1] = Toxicity in male athymic nude mouse assessed as morphological changes in lung at 5 to 20 mg/kg, iv administered every 2 days and measured after 2 weeks by H and E staining based analysis; format: organism-based; conditions: in vivo, 336 h, dose 5-20 mg/kg
# [2] = test system: NCI-H460; assay: Downregulation of DDX10 expression in human NCI-H460 cells; format: functional, cell-based
# [3] = test system: NCI-H460; assay: Anti-migratory activity against human NCI-H460 cells assessed as inhibition of cell migration at 500 nM measured for 48 hrs by wound healing assay; format: functional, cell-based
# [4] = Toxicity in male athymic nude mouse assessed as morphological changes in kidney at 5 to 20 mg/kg, iv administered every 2 days and measured after 2 weeks by H and E staining based analysis; format: organism-based; conditions: in vivo, 336 h, dose 5-20 mg/kg
# [5] = test system: NCI-H460; assay: Antitumor activity against human NCI-H460 cells xenografted in athymic nude mouse assessed as increase in gamma-H2AX level in tumor at 5 mg/kg, iv administered every 2 days and measured after 2 weeks by immunofluorescence assay; format: functional, organism-based
# [6] = test system: NCI-H460; assay: Inhibition of epithelial mesenchymal transition in human NCI-H460 cells assessed as decrease in N-cadherin protein expression by Western blotting analysis; format: functional, cell-based
# [7] = test system: NCI-H460; assay: Induction of DNA damage in human NCI-H460 cells assessed as increase in gammaH2AX positive cells by DAPI staining based confocal laser scanning microscopic analysis; format: functional, cell-based
# [8] = Toxicity in male athymic nude mouse assessed as lung damage at 20 to 80 mg/kg, iv administered every 2 days and measured after 2 weeks; format: organism-based; conditions: in vivo, 336 h, dose 20-80 mg/kg
# [9] = test system: NCI-H460; assay: Antitumor activity against human NCI-H460 cells xenografted in athymic nude mouse assessed as change in tumor volume at 5 mg/kg, iv administered every 2 days and measured after 2 weeks; format: functional, organism-based
# [10] = Toxicity in male athymic nude mouse assessed as change in body weight at 20 to 80 mg/kg, iv administered every 2 days and measured after 2 weeks; format: organism-based; conditions: in vivo, 336 h, dose 20-80 mg/kg
# [11] = Toxicity in male athymic nude mouse assessed as tumor necrosis at 5 to 20 mg/kg, iv administered every 2 days and measured after 2 weeks by H and E staining based analysis; format: organism-based; conditions: in vivo, 336 h, dose 5-20 mg/kg
# [12] = test system: NCI-H460; assay: Antitumor activity against human NCI-H460 cells xenografted in athymic nude mouse assessed as increase in gamma-H2AX level in tumor at 20 mg/kg, iv administered every 2 days and measured after 2 weeks by immunofluorescence assay; format: functional, organism-based
# [13] = test system: NCI-H460; assay: Antitumor activity against human NCI-H460 cells xenografted in athymic nude mouse assessed as tumor growth inhibition at 10 mg/kg, iv administered every 2 days and measured after 2 weeks; format: functional; conditions: NCI-H460, 336 h, read-out: TGI
# [14] = Toxicity in male athymic nude mouse assessed as heart damage at 20 to 80 mg/kg, iv administered every 2 days and measured after 2 weeks; format: organism-based; conditions: in vivo, 336 h, dose 20-80 mg/kg
# [15] = test system: HT-29; assay: Anti-tumor activity against human HT-29 cells assessed as cell viability incubated for 48 hrs by CCK-8 assay; format: functional, cell-based
# [16] = Hemolytic activity in BALB/c mouse Red blood cells assessed as effect on morphological structure at 10 to 100 uM incubated for 2 hrs; format: toxicity, cell-based; conditions: erythrocyte, dose 10-100 µM
# [17] = test system: NCI-H460; assay: Antitumor activity against human NCI-H460 cells xenografted in athymic nude mouse assessed as tumor growth inhibition at 5 mg/kg, iv administered every 2 days and measured after 2 weeks; format: functional; conditions: NCI-H460, 336 h, read-out: TGI
# [18] = Toxicity in male athymic nude mouse assessed as morphological changes in liver at 5 to 20 mg/kg, iv administered every 2 days and measured after 2 weeks by H and E staining based analysis; format: organism-based; conditions: in vivo, 336 h, dose 5-20 mg/kg
# [19] = test system: NCI-H460; assay: Inhibition of cell invasion in human NCI-H460 cells assessed as decrease in number of invading cells at 500 nM incubated for 48 hrs by transwell assay; format: functional, cell-based
# [20] = test system: NCI-H460; assay: Anti-tumor activity against DDX10 knockdown human NCI-H460 cells assessed as inhibition of cell viability; format: functional, cell-based
# [21] = test system: NCI-H460; assay: Antitumor activity against human NCI-H460 cells xenografted in athymic nude mouse assessed as tumor growth inhibition at 20 mg/kg, iv administered every 2 days and measured after 2 weeks; format: functional; conditions: NCI-H460, 336 h, read-out: TGI
# [22] = test system: NCI-H460; assay: Anti-tumor activity against human NCI-H460 cells assessed as cell viability incubated for 48 hrs by CCK-8 assay; format: functional, cell-based; conditions: NCI-H460, 48 h
# [23] = Toxicity in male athymic nude mouse assessed as liver metastasis at 5 to 20 mg/kg, iv administered every 2 days and measured after 2 weeks by H and E staining based analysis; format: organism-based; conditions: in vivo, 336 h, dose 5-20 mg/kg
# [24] = test system: NCI-H460; assay: Induction of apoptosis in human NCI-H460 cells assessed as increase in BAX level at 500 nM incubated for 24 hrs by Western blot analysis; format: functional, cell-based
# [25] = Toxicity in male athymic nude mouse assessed as liver damage at 20 to 80 mg/kg, iv administered every 2 days and measured after 2 weeks; format: organism-based; conditions: in vivo, 336 h, dose 20-80 mg/kg
# [26] = Toxicity in male athymic nude mouse assessed as lung metastasis at 5 to 20 mg/kg, iv administered every 2 days and measured after 2 weeks by H and E staining based analysis; format: organism-based; conditions: in vivo, 336 h, dose 5-20 mg/kg
# [27] = Toxicity in male athymic nude mouse assessed as kidney damage at 20 to 80 mg/kg, iv administered every 2 days and measured after 2 weeks; format: organism-based; conditions: in vivo, 336 h, dose 20-80 mg/kg
# [28] = Toxicity in male athymic nude mouse assessed as morphological changes in spleen at 5 to 20 mg/kg, iv administered every 2 days and measured after 2 weeks by H and E staining based analysis; format: organism-based; conditions: in vivo, 336 h, dose 5-20 mg/kg
# [29] = test system: NCI-H460; assay: Antitumor activity against human NCI-H460 cells xenografted in athymic nude mouse assessed as change in tumor weight at 10 to 20 mg/kg, iv administered every 2 days and measured after 2 weeks; format: functional, organism-based; conditions: dose 10-20 mg/kg
# [30] = Toxicity in iv dosed BALB/c mouse assessed as maximum tolerated dose administered every 2 days and measured after 2 weeks; format: organism-based; conditions: in vivo
# [31] = Toxicity in male athymic nude mouse assessed as change in body weight at 5 to 20 mg/kg, iv administered every 2 days and measured after 2 weeks; format: organism-based; conditions: in vivo, 336 h, dose 5-20 mg/kg
# [32] = test system: NCI-H460; assay: Inhibition of epithelial mesenchymal transition in human NCI-H460 cells assessed as increase in E-cadherin protein expression by Western blotting analysis; format: functional, cell-based
# [33] = test system: MCF7; assay: Anti-tumor activity against human MCF7 cells assessed as cell viability incubated for 48 hrs by CCK-8 assay; format: functional, cell-based
# [34] = Toxicity in male athymic nude mouse assessed as spleen damage at 20 to 80 mg/kg, iv administered every 2 days and measured after 2 weeks; format: organism-based; conditions: in vivo, 336 h, dose 20-80 mg/kg
# [35] = test system: NCI-H460; assay: Effect on DDX10 level in human NCI-H460 cells by TPP analysis; format: functional, cell-based
# [36] = test system: NCI-H460; assay: Antitumor activity against human NCI-H460 cells xenografted in iv dosed athymic nude mouse assessed as tumor growth inhibition administered every 2 days and measured after 2 weeks; format: functional, organism-based; conditions: dose 5-20 mg/kg
# [37] = test system: NCI-H460; assay: Induction of DNA damage in human NCI-H460 cells assessed as increase in gammaH2AX positive cells by immunofluorescence analysis; format: functional, cell-based
# [38] = test system: NCI-H460; assay: Induction of apoptosis in human NCI-H460 cells assessed as downregulation of Bcl2 expression at 500 nM incubated for 24 hrs by Western blot analysis; format: functional, cell-based
# [39] = test system: NCI-H460; assay: Upregulation of gamma-H2AX expression in human NCI-H460 cells by Western blot analysis; format: functional, cell-based
# [40] = test system: NCI-H460; assay: Antitumor activity against human NCI-H460 cells xenografted in athymic nude mouse assessed as increase in gamma-H2AX level in tumor at 20 mg/kg, iv administered every 2 days and measured after 2 weeks by Western blot assay; format: functional, organism-based
# [41] = test system: NCI-H460; assay: Antitumor activity against human NCI-H460 cells xenografted in athymic nude mouse assessed as change in tumor weight at 5 mg/kg, iv administered every 2 days and measured after 2 weeks; format: functional, organism-based
# [42] = Toxicity in male athymic nude mouse assessed as morphological changes in heart at 5 to 20 mg/kg, iv administered every 2 days and measured after 2 weeks by H and E staining based analysis; format: organism-based; conditions: in vivo, 336 h, dose 5-20 mg/kg
# [43] = Hemolytic activity in BALB/c mouse Red blood cells assessed as hemolysis at 10 to 100 uM incubated for 2 hrs; format: toxicity, cell-based, Erythrocyte; conditions: dose 10-100 µM, read-out: Activity
# [44] = test system: NCI-H460; assay: Induction of apoptosis in human NCI-H460 cells assessed as apoptosis rate at 500 nM incubated for 24 hrs by annexin V-FITC/PI staining based flow cytometry analysis relative to control; format: functional
# [45] = test system: NCI-H460; assay: Inhibition of colony formation in human NCI-H460 cells assessed as reduction in colony formation rate upto 12.5 uM incubated for 14 days by crystal violet staining based analysis; format: functional, cell-based; conditions: time 14.0 day
# [46] = biological target: Probable ATP-dependent RNA helicase DDX10 (Homo sapiens) (UniProt Q13206); assay: Binding affinity to DDX10 human NCI-H460 cells incubated for 60 mins at 37 to 67 degreeC by CETSA assay; format: cell-based
# [47] = test system: NCI-H460; assay: Induction of apoptosis in human NCI-H460 cells assessed as increase in caspase-3 level at 500 nM incubated for 24 hrs by Western blot analysis; format: functional, cell-based
# [48] = test system: HeLa; assay: Anti-tumor activity against human HeLa cells assessed as cell viability incubated for 48 hrs by CCK-8 assay; format: functional, cell-based
# Chain of Probable ATP-dependent RNA helicase DDX10 (Homo sapiens) (Q13206 whole entry): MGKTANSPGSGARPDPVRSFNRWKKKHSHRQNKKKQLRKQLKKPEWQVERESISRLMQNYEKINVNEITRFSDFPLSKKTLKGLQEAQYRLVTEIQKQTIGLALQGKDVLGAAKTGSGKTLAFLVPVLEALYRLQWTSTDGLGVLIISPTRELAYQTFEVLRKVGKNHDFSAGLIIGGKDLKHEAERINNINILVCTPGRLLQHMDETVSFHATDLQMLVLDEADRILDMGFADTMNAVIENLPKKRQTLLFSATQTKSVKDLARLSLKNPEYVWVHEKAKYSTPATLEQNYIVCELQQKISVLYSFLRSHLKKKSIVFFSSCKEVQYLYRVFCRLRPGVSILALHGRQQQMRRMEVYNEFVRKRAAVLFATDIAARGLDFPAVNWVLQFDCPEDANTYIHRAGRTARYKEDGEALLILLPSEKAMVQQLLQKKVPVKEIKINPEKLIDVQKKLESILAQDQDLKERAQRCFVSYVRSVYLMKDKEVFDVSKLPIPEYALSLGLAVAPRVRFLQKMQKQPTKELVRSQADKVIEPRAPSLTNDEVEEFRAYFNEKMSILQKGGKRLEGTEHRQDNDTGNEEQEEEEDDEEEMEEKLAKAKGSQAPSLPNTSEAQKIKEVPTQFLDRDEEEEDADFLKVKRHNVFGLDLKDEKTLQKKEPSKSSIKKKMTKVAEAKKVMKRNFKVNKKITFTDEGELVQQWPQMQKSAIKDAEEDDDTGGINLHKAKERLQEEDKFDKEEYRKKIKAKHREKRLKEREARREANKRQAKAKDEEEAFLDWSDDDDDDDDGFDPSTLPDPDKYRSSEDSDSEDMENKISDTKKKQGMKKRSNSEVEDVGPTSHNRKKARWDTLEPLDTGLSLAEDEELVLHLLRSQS
smiles,measurement,setting,value
COc1ccc([Se]c2c(-c3ccccc3)ncc3cccnc23)cc1,Activity,[1],Non-toxic
same,Activity,[2],Active
same,Activity,[3],Active
same,Activity,[4],Non-toxic
same,Activity,[5],Active
same,N-cadherin expression decrease (qualitative activity),[6],Active
same,Activity,[7],Active
same,Activity,[8],Non-toxic
same,Activity,[9],Active
same,Activity,[10],Non-toxic
same,Activity,[11],Non-toxic
same,Activity,[12],Active
same,inhibition in vivo at 10 mg/kg,[13],78%
same,Activity,[14],Non-toxic
same,Activity,[15],inactive
same,Activity,[16],Non-toxic
same,inhibition in vivo at 5 mg/kg,[17],60%
same,Activity,[18],Non-toxic
same,inhibition,[19],Active
same,Activity,[20],Active
same,inhibition in vivo at 20 mg/kg,[21],88%
same,IC50,[22],1.59 µM
same,Activity,[23],Non-toxic
same,Activity,[24],Active
same,Activity,[25],Non-toxic
same,Activity,[26],Non-toxic
same,Activity,[27],Non-toxic
same,Activity,[28],Non-toxic
same,Activity,[29],inactive
same,MTD at 336 h,[30],160 mg/kg
same,Activity,[31],Non-toxic
same,inhibition,[32],Active
same,Activity,[33],inactive
same,Activity,[34],Non-toxic
same,Activity,[35],Active
same,TGI,[36],Dose-dependent-effect
same,Activity,[37],Active
same,Activity,[38],Active
same,Activity,[39],Active
same,Activity,[40],Active
same,Activity,[41],Active
same,Activity,[42],Non-toxic
same,"hemolysis at 2 h, 100 µM",[43],< 1%
same,Activity,[44],42.6%
same,inhibition,[45],Active
same,Activity,[46],Active
same,Activity,[47],Active
same,Activity,[48],inactive
